Measurements reported in PubChem BioAssay AID2060894 (Molecular Pharmacology Branch, DTP, NCI, 2025).

System: K12877-001-R-J1-PDC complex spheroid viability
Assay: Anticancer human tumor K12877-001-R-J1-PDC patient-derived lung adenocarcinoma cell line growth inhibition [RAS]
Conditions: for IC50: curve of first compound; for viability, T/C: stronger effect = lower value; active means viability on the fitted dose curve at most 10% of control; inactive means the rest
Outline: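 Multi-cell-type spheroids: tumor cells plus HUVEC endothelial cells and mesenchymal stem cells. RAS-pathway inhibitors were combined with targeted agents, each dosed in half-log steps down from clinical Cmax, or from 10 microM when Cmax was unknown.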

[1] = second compound 0.000949 µM, first compound 0.0316 µM
[2] = second compound 0.000949 µM, first compound 0.1 µM
[3] = second compound 0.000949 µM, first compound 0.316 µM
[4] = second compound 0.000949 µM, first compound 1 µM
[5] = second compound 0.000949 µM, first compound 3.16 µM
[6] = second compound 0.000949 µM, first compound 10 µM
[7] = second compound 0.003 µM, first compound 0.0316 µM
[8] = second compound 0.003 µM, first compound 0.1 µM
[9] = second compound 0.003 µM, first compound 0.316 µM
[10] = second compound 0.003 µM, first compound 1 µM
[11] = second compound 0.003 µM, first compound 3.16 µM
[12] = second compound 0.003 µM, first compound 10 µM
[13] = second compound 0.00949 µM, first compound 0.0316 µM
[14] = second compound 0.00949 µM, first compound 0.1 µM
[15] = second compound 0.00949 µM, first compound 0.316 µM
[16] = second compound 0.00949 µM, first compound 1 µM
[17] = second compound 0.00949 µM, first compound 3.16 µM
[18] = second compound 0.00949 µM, first compound 10 µM
[19] = second compound 0.03 µM, first compound 0.0316 µM
[20] = second compound 0.03 µM, first compound 0.1 µM
[21] = second compound 0.03 µM, first compound 0.316 µM
[22] = second compound 0.03 µM, first compound 1 µM
[23] = second compound 0.03 µM, first compound 3.16 µM
[24] = second compound 0.03 µM, first compound 10 µM
[25] = second compound 0.0949 µM, first compound 0.0316 µM
[26] = second compound 0.0949 µM, first compound 0.1 µM
[27] = second compound 0.0949 µM, first compound 0.316 µM
[28] = second compound 0.0949 µM, first compound 1 µM
[29] = second compound 0.0949 µM, first compound 3.16 µM
[30] = second compound 0.0949 µM, first compound 10 µM
[31] = second compound 0.3 µM, first compound 0.0316 µM
[32] = second compound 0.3 µM, first compound 0.1 µM
[33] = second compound 0.3 µM, first compound 0.316 µM
[34] = second compound 0.3 µM, first compound 1 µM
[35] = second compound 0.3 µM, first compound 3.16 µM
[36] = second compound 0.3 µM, first compound 10 µM
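Further: spheroids exposed to agents for one week before readout.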
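Wherever viability, T/C is given: tumour cells co-cultured with HUVEC and mesenchymal stem cells in spheroids.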

CC(Nc1ccc2c(c1)OCCn1cc(N3C(=O)OCC3C(F)F)nc1-2)C(N)=O (stereo unspecified) + CCn1c(-c2cc(N3CCN(C)CC3)cnc2C(C)OC)c2c3cc(ccc31)-c1csc(n1)CC(NC(=O)C1CC1C)C(=O)N1CCCC(N1)C(=O)OCC(C)(C)C2
4.59 µM: IC50 (second compound 0.00949 µM)
inactive: viability, T/C [1] 80.9% | viability, T/C [2] 81.2% | viability, T/C [3] 81.5% | viability, T/C [4] 72.4% | viability, T/C [5] 62.2% | viability, T/C [6] 56% | viability, T/C [7] 71.6% | viability, T/C [8] 68.2% | viability, T/C [9] 63.4% | viability, T/C [10] 68.3% | viability, T/C [11] 62.9% | viability, T/C [12] 45.5% | viability, T/C [13] 72.7% | viability, T/C [14] 68.9% | viability, T/C [15] 70.6% | viability, T/C [16] 69.5% | viability, T/C [17] 59.1% | viability, T/C [18] 29.9% | viability, T/C [19] 94.3% | viability, T/C [20] 82.6% | viability, T/C [21] 64.1% | viability, T/C [22] 52.6% | viability, T/C [23] 42.7% | viability, T/C [24] 20% | viability, T/C [25] 80.3% | viability, T/C [26] 61.2% | viability, T/C [27] 43.8% | viability, T/C [28] 35.8% | viability, T/C [29] 23.7% | viability, T/C [30] 12% | viability, T/C [31] 65.9% | viability, T/C [32] 40.2% | viability, T/C [33] 32.2% | viability, T/C [34] 30.3% | viability, T/C [35] 19.1% | viability, T/C [36] 8.63%
1.25 µM: IC50 (second compound 0.03 µM)
7.42 µM: IC50 (second compound 0.003 µM)
0.249 µM: IC50 (second compound 0.0949 µM)
> 10 µM: IC50 (second compound 0.000949 µM)
0.0775 µM: IC50 (second compound 0.3 µM)

CC(=O)OC12COC1CC(O)C1(C)C(=O)C(O)C3=C(C)C(OC(=O)C(O)C(NC(=O)OC(C)(C)C)c4ccccc4)CC(O)(C(OC(=O)c4ccccc4)C21)C3(C)C (stereo unspecified) + C#Cc1c(F)ccc2cc(O)cc(-c3ncc4c(N5CC6CCC(C5)N6)nc(OCC56CCCN5CC(F)C6)nc4c3F)c12
< 0.0316 µM: IC50 (second compound 0.0316 µM) | IC50 (second compound 0.1 µM) | IC50 (second compound 0.316 µM) | IC50 (second compound 1 µM) | IC50 (second compound 3.16 µM) | IC50 (second compound 10 µM)
active: viability, T/C (second compound 0.0316 µM, first compound 0.0316 µM) 8.75% | viability, T/C (second compound 0.0316 µM, first compound 0.1 µM) 6.43% | viability, T/C (second compound 0.0316 µM, first compound 0.316 µM) 6.63% | viability, T/C (second compound 0.0316 µM, first compound 1 µM) 5.48% | viability, T/C (second compound 0.0316 µM, first compound 3.16 µM) 7.34% | viability, T/C (second compound 0.0316 µM, first compound 10 µM) 14.9% | viability, T/C (second compound 0.1 µM, first compound 0.0316 µM) 8.48% | viability, T/C (second compound 0.1 µM, first compound 0.1 µM) 6.66% | viability, T/C (second compound 0.1 µM, first compound 0.316 µM) 4.24% | viability, T/C (second compound 0.1 µM, first compound 1 µM) 5.34% | viability, T/C (second compound 0.1 µM, first compound 3.16 µM) 6.17% | viability, T/C (second compound 0.1 µM, first compound 10 µM) 16% | viability, T/C (second compound 0.316 µM, first compound 0.0316 µM) 9.56% | viability, T/C (second compound 0.316 µM, first compound 0.1 µM) 6.37% | viability, T/C (second compound 0.316 µM, first compound 0.316 µM) 5.39% | viability, T/C (second compound 0.316 µM, first compound 1 µM) 5.34% | viability, T/C (second compound 0.316 µM, first compound 3.16 µM) 6.63% | viability, T/C (second compound 0.316 µM, first compound 10 µM) 17.3% | viability, T/C (second compound 1 µM, first compound 0.0316 µM) 8.81% | viability, T/C (second compound 1 µM, first compound 0.1 µM) 6.46% | viability, T/C (second compound 1 µM, first compound 0.316 µM) 6.04% | viability, T/C (second compound 1 µM, first compound 1 µM) 5.11% | viability, T/C (second compound 1 µM, first compound 3.16 µM) 7.06% | viability, T/C (second compound 1 µM, first compound 10 µM) 18.1% | viability, T/C (second compound 3.16 µM, first compound 0.0316 µM) 7.54% | viability, T/C (second compound 3.16 µM, first compound 0.1 µM) 5.83% | viability, T/C (second compound 3.16 µM, first compound 0.316 µM) 4.07% | viability, T/C (second compound 3.16 µM, first compound 1 µM) 4.99% | viability, T/C (second compound 3.16 µM, first compound 3.16 µM) 6.13% | viability, T/C (second compound 3.16 µM, first compound 10 µM) 15.7% | viability, T/C (second compound 10 µM, first compound 0.0316 µM) 5.58% | viability, T/C (second compound 10 µM, first compound 0.1 µM) 3.71% | viability, T/C (second compound 10 µM, first compound 0.316 µM) 4.04% | viability, T/C (second compound 10 µM, first compound 1 µM) 4.11% | viability, T/C (second compound 10 µM, first compound 3.16 µM) 5.73% | viability, T/C (second compound 10 µM, first compound 10 µM) 15.2%

CC(=O)OC12COC1CC(O)C1(C)C(=O)C(O)C3=C(C)C(OC(=O)C(O)C(NC(=O)OC(C)(C)C)c4ccccc4)CC(O)(C(OC(=O)c4ccccc4)C21)C3(C)C (stereo unspecified) + CCn1c(-c2cccnc2C(C)OC)c2c3cc(ccc31)N1CCOC(CC(NC(=O)C(C(C)C)N(C)C(=O)C3(F)CCN(C(=O)C#CC(C)(C)N(C)C)CC3)C(=O)N3CCCC(N3)C(=O)OCC(C)(C)C2)C1
< 0.0316 µM: IC50 (second compound 0.000949 µM) | IC50 (second compound 0.003 µM) | IC50 (second compound 0.00949 µM) | IC50 (second compound 0.03 µM) | IC50 (second compound 0.0949 µM) | IC50 (second compound 0.3 µM)
active: viability, T/C [1] 4.23% | viability, T/C [2] 2.96% | viability, T/C [3] 3.64% | viability, T/C [4] 3.51% | viability, T/C [5] 3.12% | viability, T/C [6] 6.19% | viability, T/C [7] 4.57% | viability, T/C [8] 3.08% | viability, T/C [9] 3.09% | viability, T/C [10] 2.71% | viability, T/C [11] 3.37% | viability, T/C [12] 6.21% | viability, T/C [13] 3.31% | viability, T/C [14] 2.69% | viability, T/C [15] 2.28% | viability, T/C [16] 2.12% | viability, T/C [17] 2.87% | viability, T/C [18] 5.23% | viability, T/C [19] 3.32% | viability, T/C [20] 2.79% | viability, T/C [21] 2.34% | viability, T/C [22] 2.42% | viability, T/C [23] 2.51% | viability, T/C [24] 5.78% | viability, T/C [25] 2.88% | viability, T/C [26] 2.42% | viability, T/C [27] 2.13% | viability, T/C [28] 2.21% | viability, T/C [29] 2.11% | viability, T/C [30] 4.05% | viability, T/C [31] 3.02% | viability, T/C [32] 2.23% | viability, T/C [33] 2.13% | viability, T/C [34] 1.55% | viability, T/C [35] 1.93% | viability, T/C [36] 3.39%
